Laboratory results from patent US8338565B2, “Macrocyclic compounds for inhibition of tumor necrosis factor alpha” (Ensemble Therapeutics Corporation, priority 2008, dated 2012).
pIC50: −log10 of the molar value. Several values for one entry are separate records, joined by “and”; a condition that tells them apart may be missing. Identical values can stand only once. Numbered stars: 1 amine (or outer) side, 2 acyl side, 3 side chain; on linkers, the order of the positions; unused ones are H or OH. Bridge positions count the residues as written; N and C are the ends. Square brackets hold non-standard residues; d marks the D form. Peptide text beside a SMILES is read from it. Phe(4-CF3) = N[C@@H](Cc1ccc(C(F)(F)F)cc1)C(=O)O; Bip = N[C@@H](Cc1ccc(-c2ccccc2)cc1)C(=O)O; dPhe(4-NH2) = Nc1ccc(C[C@@H](N)C(=O)O)cc1; Phe(4-NH2) = Nc1ccc(C[C@H](N)C(=O)O)cc1; d(hPhe) = N[C@H](CCc1ccccc1)C(=O)O; d2Thi = N[C@H](Cc1cccs1)C(=O)O; Suc = O=C(CCC(=O)[*:2])[*:1]

Tested on: TNF-α (degradation of IkB in HeLa cells or A431 cells)
Experiment: Human cell-based assay: inhibition of TNF-α induced degradation of IkB
Details: 5 μM compound, HeLa or A431 cells, read-out: Inhibition at Various Compound Concentrations, 5 μM
Description: We used a human cell-based assay to determine the TNF-α antagonistic activity of the compounds of this invention based upon the ability of the compounds to inhibit the degradation of IkB in those cells. The assay was performed on either HeLa cells or A431 cells.
On Day 1, wells of a 24-well tissue culture plate were seeded with cells that had been harvested from cultures in T-75 flasks by standard trypsin/EDTA treatment. The harvested cells were suspended in EMEM/10% FBS/P/S (100,000 HeLa cells/mL or 200,000 A431 cells/mL) and 1 mL aliquots were placed into each well. The cells were incubated overnight at 37° C. in a humidified CO2 incubator. On day 2, the cells were approximately 95% confluent.
Test and control compounds were diluted to a 1 mM solution by dilution in DMSO. The assay was run in Costar tubes. Into each tube was placed 2.5 or 5.0 μL of test compound (for testing 5 μM and 10 μM concentrations, respectively), 2.5 μL of 100× TNF-α solution (200 ng/mL TNF-α in EMEM containing 1μg/mL cycloheximide) and, for those tubes containing 2.5 μL of compound, an additional 2.5 μL of DMSO. To each tube was then added 0.5 mL of EMEM containing 1μg/mL cycloheximide. Negative control tubes contained either a) no compound, or b) no TNF-α. Tubes were then incubated for 30 minutes at room temperature.
Once incubation had begun, the media was aspirated from the cells in the 24-well plates. Sufficient EMEM/10% FBS/P/S containing 1 ug/mL cycloheximide was then added to cover the cells (approximately 3 mL) and the cells were retuned to the 37° C. humidified CO2 incubator until compound incubation was completed. The media was then aspirated from the cells, 0.2 mL of the compound solution was added and the cells re-incubated at 37° C. for 30 minutes. The plates were then placed on ice, the compound solution was aspirated from each well, and the cells washed once with 1 mL of cold PBS. Cells were then fixed with 500 μL of 3.7% formaldehyde in PBS (“fix solution”) for 20 minutes at room temperature. The fix solution was decanted and the cells permeabilized by 4× washing with 500 uL PBS/0.1% Triton X-100. After the final permeabilization wash, the cells were treated with 500 uL of Odyssey blocking buffer (OBB) and incubated at room temperature with shaking for 90 minutes.
The OBB was decanted and then to each well was then added 125 μL each of mouse anti-IkB CST#4814 (diluted 1:200 in OBB) and rabbit anti-beta-tubulin CST#2146 (diluted 1:200 in OBB). Plates were sealed with parafin and incubated overnight at room temperature with shaking.
On day 3, the antibody solution was removed from the cells and the cells were washed 5× with 0.5 mL PBST for five minutes each on a shaker. To each well was then aded 125 μL of a secondary antibody solution containing goat anti-mouse IgG-IRDye 800 and goat anti-rabbit IgG-IRDye (each diluted 1:500 in OBB+0.2% Tween 20). The plates were covered with aluminum foil and incubated for 1 hour at room temperature with shaking. The secondary antibody solution was removed and the cells washed 3× with 0.5 mL PBST for five minutes each on a shaker. Cells were then scanned by LICOR with the following settings: 700 intensity=6.0, 800 intensity=6.5; microplate2 settings with 3.0 mm offset; 169 resolution. LICOR values were fitted to an equation for a sigmoidal curve and IC50 values calculated from the fitted parameters. […] Blank cells indicate that the compound was not tested at that concentration. Certain compounds that were tested more than once and the values reflect the average of the multiple tests.

SMILES | inhibition at 5 µM
O=C1CCC(=O)N[C@H](CCc2ccccc2)C(=O)N[C@@H](Cc2ccc(C(F)(F)F)cc2)C(=O)N[C@H](Cc2ccccc2)C(=O)N[C@@H](C(=O)N[C@@H](Cc2ccccc2)C(=O)O)Cc2ccc(cc2)N1 [Compound 12] ([d(hPhe)][Phe(4-CF3)][dF][dPhe(4-NH2)]F-OH; linker N-4 via Suc) | 10 to 50%

Same assay, conditions: 10 μM compound, HeLa or A431 cells, read-out: Inhibition at Various Compound Concentrations, 10 μM

SMILES | inhibition at 10 µM
O=C1CCC(=O)N[C@H](CCc2ccccc2)C(=O)N[C@@H](Cc2ccc(C(F)(F)F)cc2)C(=O)N[C@H](Cc2ccccc2)C(=O)N[C@@H](C(=O)N[C@@H](Cc2ccccc2)C(=O)O)Cc2ccc(cc2)N1 [Compound 12] ([d(hPhe)][Phe(4-CF3)][dF][dPhe(4-NH2)]F-OH; linker N-4 via Suc) | 10 to 50%

Same assay, conditions: 25 μM compound, HeLa or A431 cells, read-out: Inhibition at Various Compound Concentrations, 25 μM

SMILES | inhibition at 25 µM
O=C1CCC(=O)N[C@H](Cc2cccs2)C(=O)N[C@@H](Cc2ccc(-c3ccccc3)cc2)C(=O)N[C@H](Cc2ccccc2)C(=O)N[C@H](C(=O)O)Cc2ccc(cc2)N1 [Compound 1] ([d2Thi][Bip][dF][Phe(4-NH2)]-OH; linker N-4 via Suc) | 10 to 50%

Target: T1, TNFα / TNFα receptor (TNFα R1/Fc) (Homo sapiens, UniProt P01375)
T1 construct: purchased R&D Systems
T1 sequence (P01375 77-233 limits assumed, species assumed): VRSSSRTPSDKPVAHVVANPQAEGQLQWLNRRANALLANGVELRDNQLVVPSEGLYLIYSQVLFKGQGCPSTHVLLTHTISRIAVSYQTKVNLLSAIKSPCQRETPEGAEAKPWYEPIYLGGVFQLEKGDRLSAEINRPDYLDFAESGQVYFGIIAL
Experiment: Inhibition of binding of TNFα to the TNFα receptor (plate ELISA competition)
Details: Activity (IC50, inhibition of TNFα binding to TNFα R1/Fc), Table 2
In short: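 Compound dilutions were preincubated 30 min at RT with 8.33 nM TNFα R1/Fc in PBST with 2% DMSO, then added to wells coated with 15 nM TNFα for 30 min. Bound receptor was detected with HRP anti-human Fc and TMB, read as A450.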

SMILES | pIC50
O=C1COc2ccc(cc2)C[C@H](C(=O)N[C@H](CCc2ccccc2)C(=O)O)NC(=O)[C@H](CCc2ccccc2)NC(=O)[C@@H](Cc2ccc(-c3ccccc3)cc2)NC(=O)[C@H](Cc2c[nH]c3ccccc23)N1 [Compound 737] | > 5.00
O=C1COc2ccc(cc2)C[C@H](C(=O)N[C@H](CCc2ccccc2)C(=O)O)NC(=O)[C@H](Cc2c[nH]c3ccccc23)NC(=O)[C@@H](Cc2ccc(-c3ccccc3)cc2)NC(=O)[C@H](Cc2ccncc2)N1 [Compound 740] | 4.52 to 5.00
O=C1COc2ccc(cc2)C[C@@H](C(=O)N[C@H](CCc2ccccc2)C(=O)O)NC(=O)[C@H](CCc2ccccc2)NC(=O)[C@@H](Cc2ccc(-c3ccccc3)cc2)NC(=O)[C@H](Cc2c[nH]c3ccccc23)N1 [Compound 743] | > 5.00
O=C1COc2ccc(cc2)C[C@@H](C(=O)N[C@H](CCc2ccccc2)C(=O)O)NC(=O)[C@H](Cc2c[nH]c3ccccc23)NC(=O)[C@@H](Cc2ccc(-c3ccccc3)cc2)NC(=O)[C@H](Cc2ccncc2)N1 [Compound 745] | 4.52 to 5.00
O=C1COc2ccc(cc2)C[C@@H](C(=O)NCc2nnn[nH]2)NC(=O)[C@H](CCc2ccccc2)NC(=O)[C@@H](Cc2ccc(-c3ccccc3)cc2)NC(=O)[C@H](Cc2c[nH]c3ccccc23)N1 [Compound 746] | > 5.00

Same assay, conditions: Table 2; read-out: Activity (IC50, inhibition of TNFα binding to TNFα R1/Fc)

SMILES | pIC50
O=C1CCC(=O)N[C@H](Cc2cccs2)C(=O)N[C@@H](Cc2ccc(-c3ccccc3)cc2)C(=O)N[C@H](Cc2ccccc2)C(=O)N[C@H](C(=O)O)Cc2ccc(cc2)N1 [Compound 1] ([d2Thi][Bip][dF][Phe(4-NH2)]-OH; linker N-4 via Suc) | 4.52 to 5.00
O=C1CCC(=O)N[C@H](CCc2ccccc2)C(=O)N[C@@H](Cc2ccc(C(F)(F)F)cc2)C(=O)N[C@H](Cc2ccccc2)C(=O)N[C@@H](C(=O)N[C@@H](Cc2ccccc2)C(=O)O)Cc2ccc(cc2)N1 [Compound 12] ([d(hPhe)][Phe(4-CF3)][dF][dPhe(4-NH2)]F-OH; linker N-4 via Suc) | > 5.00
O=C(O)CCCNC(=O)[C@@H]1Cc2ccc(cc2)OCC(=O)N[C@@H](Cc2ccncc2)C(=O)N[C@H](Cc2ccc(-c3ccccc3)cc2)C(=O)N[C@@H](Cc2c[nH]c3ccccc23)C(=O)N1 [Compound 722] | > 5.00
O=C1COc2ccc(cc2)C[C@@H](C(=O)O)NC(=O)[C@H](CCc2ccccc2)NC(=O)[C@@H](CCc2ccccc2)NC(=O)[C@H](CCc2ccccc2)N1 [Compound 724] | > 5.00
O=C1COc2ccc(cc2)C[C@@H](C(=O)O)NC(=O)[C@H](Cc2ccc(-c3ccccc3)cc2)NC(=O)[C@@H](Cc2ccc(-c3ccccc3)cc2)NC(=O)[C@H](CCc2ccccc2)N1 [Compound 725] | > 5.00
O=C1COc2ccc(cc2)C[C@@H](C(=O)O)NC(=O)[C@H](Cc2ccc(-c3ccccc3)cc2)NC(=O)[C@@H](Cc2ccc(-c3ccccc3)cc2)NC(=O)[C@H](Cc2cccs2)N1 [Compound 726] | 4.00 to 4.52
O=C1COc2ccc(cc2)C[C@H](C(=O)O)NC(=O)[C@H](Cc2ccccc2F)NC(=O)[C@@H](Cc2ccc(-c3ccccc3)cc2)NC(=O)[C@H](Cc2c[nH]c3ccccc23)N1 [Compound 728] | 4.52 to 5.00
O=C1COc2ccc(cc2)C[C@H](C(=O)O)NC(=O)[C@H](Cc2ccccc2F)NC(=O)[C@@H](Cc2ccc(-c3ccccc3)cc2)NC(=O)[C@H](Cc2ccncc2)N1 [Compound 729] | < 4.00
O=C1COc2ccc(cc2)C[C@H](C(=O)O)NC(=O)[C@H](CCc2ccccc2)NC(=O)[C@@H](Cc2ccc(-c3ccccc3)cc2)NC(=O)[C@H](Cc2c[nH]c3ccccc23)N1 [Compound 730] | > 5.00
O=C1COc2ccc(cc2)C[C@H](C(=O)O)NC(=O)[C@H](Cc2c[nH]c3ccccc23)NC(=O)[C@@H](Cc2ccc(-c3ccccc3)cc2)NC(=O)[C@H](Cc2c[nH]c3ccccc23)N1 [Compound 731] | 4.52 to 5.00
O=C1COc2ccc(cc2)C[C@H](C(=O)O)NC(=O)[C@H](Cc2c[nH]c3ccccc23)NC(=O)[C@@H](Cc2ccc(-c3ccccc3)cc2)NC(=O)[C@H](Cc2ccncc2)N1 [Compound 732] | < 4.00
O=C1COc2ccc(cc2)C[C@@H](C(=O)O)NC(=O)[C@H](Cc2ccccc2F)NC(=O)[C@@H](Cc2ccc(-c3ccccc3)cc2)NC(=O)[C@H](Cc2c[nH]c3ccccc23)N1 [Compound 733] | > 5.00
O=C1COc2ccc(cc2)C[C@@H](C(=O)O)NC(=O)[C@H](CCc2ccccc2)NC(=O)[C@@H](Cc2ccc(-c3ccccc3)cc2)NC(=O)[C@H](Cc2c[nH]c3ccccc23)N1 [Compound 734] | > 5.00
O=C1COc2ccc(cc2)C[C@H](C(=O)N[C@H](CCc2ccccc2)C(=O)O)NC(=O)[C@H](Cc2ccccc2F)NC(=O)[C@@H](Cc2ccc(-c3ccccc3)cc2)NC(=O)[C@H](Cc2c[nH]c3ccccc23)N1 [Compound 735] | 4.52 to 5.00
O=C1COc2ccc(cc2)C[C@H](C(=O)N[C@H](CCc2ccccc2)C(=O)O)NC(=O)[C@H](Cc2ccccc2F)NC(=O)[C@@H](Cc2ccc(-c3ccccc3)cc2)NC(=O)[C@H](Cc2ccncc2)N1 [Compound 736] | > 5.00
O=C1COc2ccc(cc2)C[C@H](C(=O)N[C@H](CCc2ccccc2)C(=O)O)NC(=O)[C@H](CCc2ccccc2)NC(=O)[C@@H](Cc2ccc(-c3ccccc3)cc2)NC(=O)[C@H](Cc2ccncc2)N1 [Compound 738] | > 5.00
O=C1COc2ccc(cc2)C[C@H](C(=O)N[C@H](CCc2ccccc2)C(=O)O)NC(=O)[C@H](Cc2c[nH]c3ccccc23)NC(=O)[C@@H](Cc2ccc(-c3ccccc3)cc2)NC(=O)[C@H](Cc2c[nH]c3ccccc23)N1 [Compound 739] | > 5.00
O=C1COc2ccc(cc2)C[C@@H](C(=O)N[C@H](CCc2ccccc2)C(=O)O)NC(=O)[C@H](Cc2ccccc2F)NC(=O)[C@@H](Cc2ccc(-c3ccccc3)cc2)NC(=O)[C@H](Cc2c[nH]c3ccccc23)N1 [Compound 741] | > 5.00
O=C1COc2ccc(cc2)C[C@@H](C(=O)N[C@H](CCc2ccccc2)C(=O)O)NC(=O)[C@H](Cc2ccccc2F)NC(=O)[C@@H](Cc2ccc(-c3ccccc3)cc2)NC(=O)[C@H](Cc2ccncc2)N1 [Compound 742] | > 5.00
O=C1COc2ccc(cc2)C[C@@H](C(=O)N[C@H](CCc2ccccc2)C(=O)O)NC(=O)[C@H](Cc2c[nH]c3ccccc23)NC(=O)[C@@H](Cc2ccc(-c3ccccc3)cc2)NC(=O)[C@H](Cc2c[nH]c3ccccc23)N1 [Compound 744] | > 5.00
CN1C(=O)COc2ccc(cc2)C[C@@H](C(=O)N[C@H](CCc2ccccc2)C(=O)O)NC(=O)[C@H](Cc2c[nH]c3ccccc23)NC(=O)[C@@H](Cc2ccc(-c3ccccc3)cc2)NC(=O)[C@@H]1Cc1c[nH]c2ccccc12 [Compound 747] | > 5.00
O=C(O)CCCNC(=O)[C@H]1Cc2ccc(cc2)OCC(=O)N[C@@H](Cc2c[nH]c3ccccc23)C(=O)N[C@H](Cc2ccc(-c3ccccc3)cc2)C(=O)N[C@@H](Cc2ccccc2F)C(=O)N1 [compound 713] | > 5.00
O=C(O)CCCNC(=O)[C@H]1Cc2ccc(cc2)OCC(=O)N[C@@H](Cc2ccncc2)C(=O)N[C@H](Cc2ccc(-c3ccccc3)cc2)C(=O)N[C@@H](CCc2ccccc2)C(=O)N1 [compound 715] | 4.52 to 5.00 and < 4.00
